Reference: US20240299416A1, “TREATMENT OF NF-kB-MEDIATED DISEASE” (ReveraGen BioPharma, Inc., priority 2021, published 2024)
Where two headings read alike, the source gives them in different places.

Tests used:
[1] = biological target: T1, mineralocorticoid receptor (Homo sapiens, UniProt P08235); conditions: cited from earlier work
T1 sequence (P08235 1-984): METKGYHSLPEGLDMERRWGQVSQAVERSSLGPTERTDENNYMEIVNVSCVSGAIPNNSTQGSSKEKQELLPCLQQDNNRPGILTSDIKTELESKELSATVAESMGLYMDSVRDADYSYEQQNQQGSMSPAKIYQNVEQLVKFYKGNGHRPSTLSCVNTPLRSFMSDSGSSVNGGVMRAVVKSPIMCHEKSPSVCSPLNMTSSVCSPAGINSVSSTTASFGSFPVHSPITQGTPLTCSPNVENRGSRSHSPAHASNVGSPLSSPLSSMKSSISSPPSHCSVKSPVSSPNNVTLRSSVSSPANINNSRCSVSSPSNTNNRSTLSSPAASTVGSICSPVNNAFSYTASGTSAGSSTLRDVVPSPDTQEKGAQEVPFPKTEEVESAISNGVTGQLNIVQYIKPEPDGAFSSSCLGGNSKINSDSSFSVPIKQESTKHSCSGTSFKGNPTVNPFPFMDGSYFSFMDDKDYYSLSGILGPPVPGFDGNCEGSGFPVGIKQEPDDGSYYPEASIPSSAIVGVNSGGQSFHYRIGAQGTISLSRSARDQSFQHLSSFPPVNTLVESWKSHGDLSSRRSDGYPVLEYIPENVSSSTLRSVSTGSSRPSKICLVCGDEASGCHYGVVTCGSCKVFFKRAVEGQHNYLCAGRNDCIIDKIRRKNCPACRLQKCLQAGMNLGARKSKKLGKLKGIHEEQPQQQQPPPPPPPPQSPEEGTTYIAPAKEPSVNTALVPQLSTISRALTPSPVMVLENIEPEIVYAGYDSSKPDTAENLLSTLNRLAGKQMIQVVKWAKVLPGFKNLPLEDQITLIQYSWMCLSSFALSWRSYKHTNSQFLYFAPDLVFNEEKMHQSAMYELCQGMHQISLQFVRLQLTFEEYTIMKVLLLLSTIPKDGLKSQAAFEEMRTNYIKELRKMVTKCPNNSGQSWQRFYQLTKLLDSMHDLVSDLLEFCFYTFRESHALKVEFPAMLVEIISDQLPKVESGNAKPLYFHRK

[2] = Griggs et al. 2016 double-blind trial, 12 months treatment, cited from earlier work
[3] = cited from earlier work
[4] = Growth (height percentile) and BMI vs external comparators; assay type: in vivo, human; conditions: CINRG prednisone trial, 0.75 mg/kg/day daily; for Mean BMI z-score, change from baseline (SD) / Mean BMI z-score, baseline value (SD): 0.75 mg/kg/day
Description: As with the CINRG DNHS comparators, group-matching criteria were prespecified in the iSAP, and 2 independent statisticians carried out the participant matching. […] There was no corresponding 12-month assessment in vamorolone-treated participants. (Assessments of vamorolone-treated trial participants were 0, 3, 6, and 18 months).
Standing height and weight were assessed at each study visit. Height z-score, body mass index (BMI; kg/m^2), and BMI z-score were calculated centrally. AE reporting was done per protocol in the vamorolone trials.
The current study is the first to evaluate the longer-term tolerability, efficacy, and safety of vamorolone in DMD. […] Given the variable timing of dose escalations, it was prespecified that initial analyses of drug-related efficacy and safety would be limited to those participants who had 18 months of treatment with 2.0 mg/kg/day vamorolone or more (dose group C+dose group D; n=23). Outcomes for these participants were compared to a group-matched cohort from the CINRG DNHS over 18 months (corticosteroid-naïve, n=19; corticosteroid-treated, n=68). Participants were matched for age and treatment period (±1 month), matching criteria were prespecified in the statistical analysis plan. Two independent statisticians carried out the matching.
Participants in the corticosteroid-treated CINRG DNHS group were treated for at least 18 months, but the total duration, dose, and regimens varied.

[5] = VBP15-004 adverse events, Treatment Period 2 / cross-over; assay type: in vivo, human; conditions: on prednisone (to Week 24), subjects later switched to vamorolone 6 mg/kg/day
Description: (§1) Subjects already on vamorolone continued on the allocated dose level. Efficacy at Week 48 was assessed by Time to Stand ([…]) velocity, 6-Minute Walk Test (6MWT), Time to Run/Walk 10 meters (TTRW) velocity, and North Star Ambulatory Assessment (NSAA). […] In contrast, the persistence of effects with vamorolone 2 mg/kg/day was less pronounced for some parameters. The safety profile was consistent for subjects who continued on the same dose of vamorolone throughout the study, with no increase in frequency or severity of adverse events being observed over time. […] In addition, vamorolone treatment at both doses reversed the growth impairment seen during prednisone treatment and was associated with fewer adverse events, including those associated with corticosteroid use.

osteocalcin, P1NP, CTX = assay: VBP15-004 bone turnover biomarkers; assay type: in vivo, human
boys with DMD = assay: VBP15-004 efficacy at Week 48; assay type: in vivo, human; conditions: prednisone, Treatment Period 1
Description: as §1

[6] = VBP15-004 adverse events at 24 weeks; design: species or system human; conditions: male, human, in vivo, 24 weeks
Excerpt: In certain embodiments, the symptom may be an adverse event of special interest (AESI). In this context, AESIs are prespecified based on pre-defined MedDRA search criteria for eleven AESI categories for the corticosteroid class and then further stratified into AESI of at least moderate severity. The symptoms for treating DMD with corticosteroids include, but is not limited to, behavior adverse events, blood glucose related problems, gastrointestinal symptoms, increased arterial blood pressure, immune suppression/infections, skin/hair changes, cataracts/glaucoma, cushingoid features, weight gain, bone fractures, slow growth.
(§2) The second period of 24 weeks, where all participants receive vamorolone treatment on either of the two dose levels, will continue to capture additional longer-term safety and tolerability data.

[7] = VBP15-004 height and BMI z-scores, 24 to 48 weeks; assay type: in vivo, human; conditions: for BMI mean z-score: prednisone
Description: as §2
Subjects already on vamorolone continued on the allocated dose level. Efficacy at Week 48 was assessed by Time to Stand (TTSTAND) velocity, 6-Minute Walk Test (6MWT), Time to Run/Walk 10 meters (TTRW) velocity, and North Star Ambulatory Assessment (NSAA). […] In contrast, the persistence of effects with vamorolone 2 mg/kg/day was less pronounced for some parameters. The safety profile was consistent for subjects who continued on the same dose of vamorolone throughout the study, with no increase in frequency or severity of adverse events being observed over time. […] In addition, vamorolone treatment at both doses reversed the growth impairment seen during prednisone treatment and was associated with fewer adverse events, including those associated with corticosteroid use.

[8] = Griggs et al. 2016, 0.9 mg/kg/day deflazacort, 0.75 mg/kg/day prednisone

**Q.** Which results are given for CC(=O)OCC(=O)[C@@]12N=C(C)O[C@@H]1C[C@H]1[C@@H]3CCC4=CC(=O)C=C[C@]4(C)[C@H]3[C@@H](O)C[C@@]12C [Deflazacort, deflazacort]?
**A.** activity at the mineralocorticoid receptor [1]: agonists; change in height percentiles for age [2]: −11.4; change in height percentiles for age ([2]; listed as deflazacort): −11.43; Incidence of Cushingoid ([3]; CINRG DNHS): 72%; Incidence of behavior change ([3]; CINRG DNHS): 33%; Incidence of weight gain ([3]; CINRG DNHS): 63%; Incidence of Cushingoid [3, 8]: 60.3%; Incidence of behavior change [3, 8]: 9%; Incidence of hypertrichosis/hirsutism [3, 8]: 35%; Incidence of weight gain [3, 8]: 27.9%

**Q.** Which “Mean BMI z-score, value (SD) at 12 months” value ([4]; 12 months) does the source give for C[C@]12C=CC(=O)C=C1CC[C@@H]1[C@@H]2C(=O)C[C@@]2(C)[C@H]1CC[C@]2(O)C(=O)CO [Prednisone, prednisone] here?
**A.** 1.068 (1.05)

**Q.** And the “Mean height percentile for age, change from baseline (SD)” value ([4]; 12 months)?
**A.** −3.76 (10.44)

**Q.** And the “Mean height percentile for age, value (SD) at 12 months” value ([4]; 12 months)?
**A.** 26.14 (24.21)

**Q.** What about the “Mean BMI z-score, change from baseline (SD)” value ([4]; 12 months) of the same compound?
**A.** 0.459 (0.407)

**Q.** What about the “Mean BMI z-score, change from baseline (SD)” value ([4]; 12 months, listed as prednisone) of the same compound?
**A.** 0.46

**Q.** And the “Mean height percentile for age, baseline value (SD)” value ([4]; baseline)?
**A.** 29.89 (29.15)

**Q.** And the “Mean BMI z-score, baseline value (SD)” value ([4]; baseline)?
**A.** 0.61 (1.27)

**Q.** What about the “Mean BMI z-score, baseline value (SD)” value ([4]; baseline, listed as prednisone) of the same compound?
**A.** 0.61

**Q.** What about the “number of adverse events” value [5] of the same compound?
**A.** 70

**Q.** And the “number of adverse events reported as behavioral disorders” value [5]?
**A.** 15

**Q.** What about the “number of adverse events typically associated with corticosteroids” value [5] of the same compound?
**A.** 40

**Q.** What about the “Osteocalcin, mean (SEM) change at Week 24” value (osteocalcin, P1NP, CTX) of the same compound?
**A.** −15.2 (2.7) ng/ml

**Q.** What about the “Procollagen 1 N-Terminal Propeptide (P1NP), mean (SEM) change at Week 24” value (osteocalcin, P1NP, CTX; Prednisone 0.75 mg) of the same compound?
**A.** −134 (22) ng/mL

**Q.** What about the “Type I Collagen C-Telopeptides (CTX), mean (SEM) change at Week 24” value (osteocalcin, P1NP, CTX; Prednisone 0.75 mg) of the same compound?
**A.** −300 (43) pg/mL

**Q.** What about the “effect on bone biomarkers (osteocalcin, PINP, CTX)” value (osteocalcin, P1NP, CTX; Week 24, vamorolone 2.0 and 6.0 mg/kg) of the same compound?
**A.** strongly reduce all bone biomarkers

**Q.** What about the 6MWT distance (boys with DMD) of the same compound?
**A.** 407 meters

**Q.** And the NSAA (boys with DMD)?
**A.** 25.6 points

**Q.** What about the TTRW velocity (boys with DMD) of the same compound?
**A.** 2.20 m/s

**Q.** And the TTSTAND velocity (boys with DMD)?
**A.** 0.28 rises/s

**Q.** What about the “AESIs of at least moderate severity, F” value [6] of the same compound?
**A.** 15

**Q.** And the “Abnormal behavior, any severity, F” value [6]?
**A.** 2

**Q.** What about the “Abnormal behavior, moderate/severe, F” value [6] of the same compound?
**A.** 1

**Q.** What about the “Aggression, any severity, F” value [6] of the same compound?
**A.** 3

**Q.** What about the “Aggression, moderate/severe, F” value [6] of the same compound?
**A.** 2

**Q.** What about the “All AESIs, F” value [6] of the same compound?
**A.** 69

**Q.** What about the “All TEAEs, F” value [6] of the same compound?
**A.** 120

**Q.** And the “Anger, any severity, F” value [6]?
**A.** 1

**Q.** What about the “Any Behavior AESI, any severity, F” value [6] of the same compound?
**A.** 16

**Q.** And the “Any Behavior AESI, moderate/severe, F” value [6]?
**A.** 8

**Q.** And the “Clinically relevant AEs, F” value [6]?
**A.** 19

**Q.** And the “Emotional disorder, any severity, F” value [6]?
**A.** 1

**Q.** And the “Emotional disorder, moderate/severe, F” value [6]?
**A.** 1

**Q.** What about the “Initial insomnia, any severity, F” value [6] of the same compound?
**A.** 1

**Q.** And the “Irritability, any severity, F” value [6]?
**A.** 1

**Q.** What about the “Mood swings, any severity, F” value [6] of the same compound?
**A.** 2

**Q.** And the “Mood swings, moderate/severe, F” value [6]?
**A.** 1

**Q.** And the “Personality change, any severity, F” value [6]?
**A.** 1

**Q.** What about the “Personality change, moderate/severe, F” value [6] of the same compound?
**A.** 1

**Q.** And the “Psychomotor hyperactivity, any severity, F” value [6]?
**A.** 3

**Q.** What about the “Psychomotor hyperactivity, moderate/severe, F” value [6] of the same compound?
**A.** 1

**Q.** What about the “Severe TEAEs (CTCAE Grade ≥3), F” value [6] of the same compound?
**A.** 1

**Q.** What about the “Sleep disorder, any severity, F” value [6] of the same compound?
**A.** 1

**Q.** What about the “Sleep disorder, moderate/severe, F” value [6] of the same compound?
**A.** 1

**Q.** And the “TEAEs leading to discontinuation, F” value [6]?
**A.** 1

**Q.** What about the “clinically relevant psychiatric events, subjects” value [6] of the same compound?
**A.** 19.4%

**Q.** What about the “moderate/severe behavior problems, subjects” value [6] of the same compound?
**A.** 22.6%

**Q.** What about the “height (z-score), absolute value, Mean” value ([7]; PDN/VAM 6 mg, Week 24) of the same compound?
**A.** −0.38

**Q.** And the “change in height Z scores” value ([7]; prednisone 0.75 mg/kg/day, baseline to Week 24)?
**A.** growth deceleration

**Q.** What about the BMI mean z-score ([7]; end of Treatment Period 1) of the same compound?
**A.** 1.40

**Q.** What about the BMI mean z-score ([7]; start of Treatment Period 1) of the same compound?
**A.** 0.94

**Q.** What about the “activity at the mineralocorticoid receptor” value [1] of the same compound?
**A.** agonists
